“Also recorded” adds a separate entry of the source.
Legend:
[1] = system: lung cancer cell line NCI-H23; assay: Luciferase (pGL3) transfection efficiency of lipoplexes, NCI-H23; format: cell-based, human; details: for transfection efficiency (in words): cholesterol as helper lipid 1:1, charge ratio lipid/DNA 2:1; for transfection efficiency, counterion study: 5Myr/Chol 1:1, PBS, sonicated two sequences of 15 minutes, FIG. 5
Procedure: (§1) The three series of cationic lipids newly synthesized were assessed for their transfection efficiency in vitro, using the experimental conditions optimized in a previous study.^23 Essentially the cationic lipids were mixed with cholesterol at a 1:1 molar ratio, dissolved in chloroform/methanol and dried under vacuum to generate a lipid film. The dried lipid film was hydrated with sterile phosphate buffer isotonic saline with pH=7.4 (PBS) and sonicated to yield cationic liposomes. The resulting liposomal solution was allowed to react with a DNA solution to form the final cationic lipid-DNA complexes (lipoplexes), which were assessed for transfection efficiency using different cell cultures. We used a pGL3 plasmid (Promega, Madison, Wisc.), encoding a firefly luciferase gene under the control of the constitutively active SV40 promoter as the reporter for the transfection efficiency. An optimal^23 electrostatic charge ratio cationic lipid/DNA of 2:1 was used in all preparations. […] The ability of these new cationic lipids to generate relatively small cationic liposomes could be attributed to the relatively large curvature radius induced in the bilayer by the bulky pyridinium cationic head.
(§2) Dioleoylphosphatidylethanolamine (DOPE), cholesterol (CHOL), N-(2,3-dioleoyloxypropyl)-N,N,N-trimethylammonium chloride (DOTAP) were commercial products. The purity of the lipids was checked by thin layer chromatography and also by differential scanning calorimetry (DSC), which was also used for determining the critical temperature Tc. For the preparation of the liposomes a protocol optimized for this type of compounds was adopted as follows. The cationic lipid (with or without helper lipid) was dissolved in chloroform/methanol (2/1, v/v) to reach a final concentration of 1 mM for the charged species. From this stock solution 50 μL were aliquoted in a 1 mL tube and the solvent was evaporated in a SpeedVac evaporator, under vacuum, for 1 h. The dried lipid film was prepared by removing the traces of organic solvent in a dessicator, over Drierite®, under vacuum, overnight. The film was hydrated with 500 μL sterile phosphate buffer saline (PBS) the tube was purged with sterile N2, and vortexed for 1 minute. The liposomes were generated by sonicating the tube in a water bath sonicator for 5-30 minutes at 62° C. and at 37° C. for DOTAP. After sonication the preparations were allowed to reach room temperature.
For generating the lipoplexes, 1.4-2.8 μL plasmid DNA solution (0.5 μg/μL) was diluted with 100 μL Optimem®. A liposome solution was prepared separately by diluting the initial liposomal stock solution (0.1 mM in cationic lipid) with Optimem® in specified proportions, to reach a final volume of 50 μL. Over this liposome solution 50 μL of the DNA stock solution was added, the tube was incubated for 30 minutes at room temperature and then the content diluted with 500 μL Optimem® (final volume of the lipoplex stock solution: 600 μL).
The lipoplexes was tested for their transfection properties over five different cancer cell lines—breast carcinoma (MCF-7 and MDA-Mb231), lung carcinoma (NCI-H23), prostate carcinoma (DU-145) and brain carcinoma (SWB-95). The cells were maintained in 10% fetal bovine serum (FBS)—enriched RPMI 1640 at 37° C. and 5% CO2 in a humidified atmosphere. Twenty-four hours prior to transfection the cells were transferred in 96-wells microtiter plate at a density of 20,000 cells/well. Each well received 100 μL medium and the plate was incubated in the same conditions. All experiments were done in triplicate or quadruplicate.
Immediately before transfection the medium was removed from each well and the cells were briefly washed with 200 μL sterile PBS. After removal of the PBS each well received 100 μL lipoplex stock solution and the plate was placed in the incubator for 1 hour. Then, 100 μL medium was added to each well and the plate was incubated for 24 hours. […]

[2] = Cationic liposome size by dynamic light scattering; format: physicochemical
Procedure: as §1, §2

[3] = Critical (phase transition) temperature Tc by differential scanning calorimetry; format: physicochemical; details: for Tc (critical temperature), Pure: pure lipid; for Tc (phase transition temperature): lipids 21 and 25, DSC, heating rate 5° C./minute
Procedure: General. Melting points for the diols and the phase transition temperature Tc for the cationic lipids were determined by differential scanning calorimetry (DSC), using a TA-Instruments Q100 DSC, and a heating rate of 5° C./minute. The IR spectra were recorded on a Nicolet Avatar 360 FTIR spectrophotometer in the range 650-4000 cm^−1 using a ZnSe—attenuated total reflectance (ATR) accessory. The compounds were solved in a small amount of solvent (MeOH for the diols, CHCl3 for the lipids), and the resulted solutions were left to evaporate to dryness on the surface of the ZnSe crystals of the ATR accessory. The NMR spectra were recorded at ≈303 K with a Varian Inova spectrometer equipped with a 5 mm indirect detection probe, operating at 500 MHz for ^1H-NMR and at 125 MHz for ^13C-NMR. Chemical shifts are reported as δ values, using TMS as internal standard for proton spectra and the solvent resonance for carbon spectra. Assignments were made based on signal intensity, selective decoupling, COSY (^1H-^1H) and HETCOR (^1H-^13C) sequences. Elemental analyses were performed by combustion, using a Perkin Elmer 2400 Series II CHNS analyser.
as §2
Materials and Methods. Melting points for the diols, acetates and ketals were determined on a Boetius heating plate microscope and are uncorrected. For the cationic lipids 21 and 25 the phase transition temperature Tc was determined by differential scanning calorimetry (DSC), using a TA-Instruments Q100 DSC, and a heating rate of 5° C./minute. The IR spectra were recorded on a Nicolet Avatar 360 FTIR spectrophotometer, in the range 650-4000 cm^−1, using a ZnSe—attenuated total reflectance (ATR) accessory. The compounds were solved in a small amount of solvent (MeOH for the diols, CHCl3 for the esters), the resulted solutions being left to evaporate to dryness on the surface of the ZnSe crystals of the ATR accessory. This technique was imposed by the poor results obtained in transmission mode for some of the compounds, due to the lack of crystallization, hygroscopicity and other problems related with working with KBr pellets. The NMR spectra were recorded at ≈303 K with a Varian Gemini 300BB spectrometer operating at 300 MHz for ^1H and at 75 MHz for ^13C. Chemical shifts are reported as δ values, using TMS as internal standard for proton spectra and the solvent resonance for carbon spectra: 77.00 ppm in CDCl3, 39.50 ppm in DMSO-d6, the line from 123.50 ppm in pyridine-d5, 62.80 ppm in nitromethane-d3, 30.10 ppm in dimethylformamide-d7. Assignments were made based on signal intensity, selective decoupling and COSY (^1H-^1H) and HETCOR (^1H-^13C) sequences. Nitrogen elemental analysis was performed by combustion, mixing the samples with small amounts of quartz sand.

cancer cell line NCI-H23 = assay: WST-1 viability assay of transfected cells; format: cell-based, human; details: NCI-H23 transfected with lipoplexes, Chol 1:1; FIG. 6
Procedure: FIG. 6. Viability assay results for the cancer cell line NCI-H23 transfected with 5AMyr-5EMyr and DOTAP (Cl^−)-based lipoplexes. The other characteristics were the same as in the transfection experiment represented in FIG. 5.
In order to assess the cytotoxicity associated with every anion, a WST-1^28 viability assay was conducted in parallel.

[4] = cholesterol at 1:1 molar ratio to cationic lipid
[5] = molar ratio of cholesterol to lipid halved

Structure (SMILES)	transfection efficiency (in words) [1]	Tc (critical temperature), Pure [3] [°C]	Tc (critical temperature), With cholesterol (1:1 molar ratio) ([3]; 1:1 molar ratio) [°C]	Tc (phase transition temperature) [3] [°C]	other results
CC(=O)OCC(C[n+]1c(C)cc(C)cc1C)OC(C)=O.F[B-](F)(F)F (centres unmarked)	–	–	–	–	melting point: 119 to 120 °C
CC(=O)OCC(COC(C)=O)[n+]1c(C)cc(C)cc1C.F[B-](F)(F)F	–	–	–	–	melting point: 110 to 111 °C
CCCCCCCCCCCCCC(=O)OCC(C[n+]1c(C)cc(C)cc1C)OC(=O)CCCCCCCCCCCCC.F[P-](F)(F)(F)(F)F (centres unmarked) [Lipid 3AMyr, 1-(2,3-dimyristoyloxypropyl)-2,4,6-trimethylpyridinium hexafluorophosphate]	highest transfection peaks	121.3	112.5	–	average size of the cationic vesicles [2, 4]: 132 nm; average size of the cationic vesicles [2, 5]: 89 nm; Tc (critical temperature), With DOPE (1:1 molar ratio) ([3]; with DOPE, 1:1 molar ratio): 107.7 °C
CCCCCCCC/C=C\CCCCCCCC(=O)OCC(C[n+]1c(C)cc(C)cc1C)OC(=O)CCCCCCC/C=C\CCCCCCCC.F[P-](F)(F)(F)(F)F (centres unmarked) [Lipid 3AOle, 1-(2,3-dioleoyloxypropyl)-2,4,6-trimethylpyridinium hexafluorophosphate]	secondary peak	67.9	58.5	–	average size of the cationic vesicles [2, 4]: 113 nm; average size of the cationic vesicles [2, 5]: 103 nm
CCCCCCCC/C=C\CCCCCCCC(=O)OCC(COC(=O)CCCCCCC/C=C\CCCCCCCC)[n+]1c(C)cc(C)cc1C.F[P-](F)(F)(F)(F)F [Lipid 5AOle, 1-(1,3-dioleoyloxypropane-2-yl)-2,4,6-trimethylpyridinium hexafluorophosphate]	low transfection efficiency	17.0	31.0	–	–
CCCCCCCCCCCCCC(=O)OCC(COC(=O)CCCCCCCCCCCCC)[n+]1c(C)cc(C)cc1C.[O-][Cl+3]([O-])([O-])[O-] [Lipid 5BMyr, 1-(1,3-dimyristoyloxypropane-2-yl)-2,4,6-trimethylpyridinium perchlorate]	–	60.2	58.4	–	transfection efficiency, counterion study [1]: most efficient lipoplexes; cytotoxicity (WST-1 viability) (cancer cell line NCI-H23): more cytotoxic
CCCCCCCCCCCCCC(=O)OCC(COC(=O)CCCCCCCCCCCCC)[n+]1c(C)cc(C)cc1C.F[B-](F)(F)F [Lipid 5CMyr, 1-(1,3-dimyristoyloxypropane-2-yl)-2,4,6-trimethylpyridinium tetrafluoroborate]	–	58.4	55.2	–	cytotoxicity (WST-1 viability) (cancer cell line NCI-H23): minimum cytotoxicity
CCCCCCCCCCCCCC(=O)OCC(COC(=O)CCCCCCCCCCCCC)[n+]1c(C)cc(C)cc1C.[I-] [Lipid 5EMyr, 1-(1,3-dimyristoyloxypropane-2-yl)-2,4,6-trimethylpyridinium iodide]	–	60.8	80.1	–	transfection efficiency, counterion study [1]: followed by the hexafluorophosphate 5AMyr, chloride 5DMyr, tetrafluoroborate 5CMyr, and iodide 5EMyr; cytotoxicity (WST-1 viability) (cancer cell line NCI-H23): more cytotoxic
CCCCCCCCCCCC(=O)Oc1ccc(CC[n+]2c(C)cc(C)cc2C)cc1OC(=O)CCCCCCCCCCC.F[P-](F)(F)(F)(F)F [Lipid 7ALau, 1-(3,4-dilauroyloxyphenylethyl)-2,4,6-trimethylpyridinium hexafluorophosphate]	best transfection efficiency	140.7	126.9	–	transfection efficiency relative to another derivative of series 7 ([1]; cholesterol 1:1, FIG. 2): about five times more active than the decanoyl derivative 7ACpc; also recorded: about ten times more efficient than the oleoyl derivative 7AOle
CCCCCCCCCCCCCCCCCC(=O)OCC(COC(=O)CCCCCCCCCCCCCCCCC)[n+]1c(C)cc(C)cc1C.[O-][Cl+3]([O-])([O-])[O-] [Lipid 25AaS, 1-(1,3-Distearoyloxypropane-2-yl)-2,4,6-trimethylpyridinium perchlorate]	–	–	–	70	–
CCCCCCCC/C=C\CCCCCCCC(=O)OCC(COC(=O)CCCCCCC/C=C\CCCCCCCC)[n+]1c(C)cc(C)cc1C.F[B-](F)(F)F [Lipid 25AbO, 1-(1,3-Dioleoyloxypropane-2-yl)-2,4,6-trimethylpyridinium tetrafluoroborate]	–	–	–	43	–
CCCCCCCCCCCCCCCCCC(=O)OCC(COC(=O)CCCCCCCCCCCCCCCCC)[n+]1c(C)cc(C)cc1C.F[B-](F)(F)F [Lipid 25AbS, 1-(1,3-Distearoyloxypropane-2yl)-2,4,6-trimethylpyridinium tetrafluoroborate]	–	–	–	73	–
CCCCCCCCCCCCCCCC(=O)OCC(COC(=O)CCCCCCCCCCCCCCC)[n+]1c(-c2ccccc2)cc(-c2ccccc2)cc1-c1ccccc1.[O-][Cl+3]([O-])([O-])[O-] [Lipid 25BaP, 1-(1,3-Dipalmitoyloxypropane-2-yl)-2,4,6-triphenylpyridinium perchlorate]	–	–	–	125	–

Reference: US7456197B2, “Pyridinium cationic lipids as gene transfer agents” (The Texas A&M University System, priority 2003, dated 2008)
